Measurements: patent publication US20110311517A1, “Antibodies and methods for treating estrogen receptor-associated diseases” (SHENOGEN PHARMA GROUP, LTD., priority 2009, published 2011)

Test system: implanted tumors
Assay: Comparison of anti-tumor activity of ScFv-7 with tamoxifen on tumor-bearing nude mice
Type: in vivo, BALB/c-nu female nude mice
Details: after 18 days of drug administration
Experimental: BALB/c-nu female nude mice were divided into 3 groups, with 7 mice in each group.
Human anti-ERα36 ScFv-7 was administered at the dose of 0.1 mg/20 g body weight/day. The positive control tamoxifen was administered at the dose of 0.33 mg/20 g body weight/day. The negative control group was administered with human IgG.
The tumor-bearing nude mice were weighed, and the volumes of the implanted tumors were measured every 3-4 days. The relative tumor volumes and tumor growth inhibition rates were calculated using Equation 2 and Equation 4 respectively. Animals received drug administration for 18 days and were terminated 24 h later. The tumors were excised from the animals and weighed. The average tumor weights and tumor growth inhibitions were calculated using Equation 4.

CC/C(=C(\c1ccccc1)c1ccc(OCCN(C)C)cc1)c1ccccc1 [tamoxifen, reference compound]
tumor inhibition rates (ScFv-7 0.1 mg/20 g body weight/day, tamoxifen 0.33 mg/20 g body weight/day): around 60%
average tumor weights compared with negative group (p-values below 0.01): significant difference
